What was measured:
[1] = tested on: primary tumor cells dissociated from MDA-MB-231 xenografts replanted into NOD/SCID mice; experiment: Limiting dilution assay of cells from treated MDA-MB-231 xenografts; type: in vivo; settings: for number of tumor-bearing mice (number of recipient mice): cells from 16 mg/kg group, 3 months later
Description: Fig. 5 B591 abolishes tumor growth in vivo by eliminating CSCs. a MDA-MB-231 xenografts were treated with vehicle or B591 for 2 weeks, then the residual tumor tissue was harvested and dissociated into single cells for subsequent CSCs assays according with the flow chart. b–d Tumor weight and mice body weight were measured every 2 days during treatment. In the end of treatment, tumor tissues were collected and weighted (n = 8). e The CSCs markers of tumor cells were analyzed by flow cytometry. Only the live and non-mouse cell population was gated and analyzed. Data from three mice were plotted. f Mammosphere formation assay was carried out with the single cells. The relative mammosphere-formation ability is shown as percentage, and data represent mean ± SD. g The single cells from vehicle and 16 mg/kg of B591 group were replanted into NOD/SCID mice according to the indicating number, and 3 months later, tumors were counted for calculating the tumor-initiating frequency. h The CSCs markers and the downstream substrates of PI3K pathway were analyzed using the lysates from the primary xenografts by western blot analysis. ^**p < 0.01, difference versus vehicle-treated control group TEXT PRINTED IN THE PICTURE: (G) B591: 3(5) (Cell number: 200 000); 2(5) (Cell number: 20 000); 0(5) (Cell number: 2 000); 0(5) (Cell number: 200); TIF: 1/145 000
The primary tumor cells dissociated from xenografts were injected into the mammary fat pad of NOD/SCID mice in limiting dilutions.
In MDA-MB-231 xenografts experiment, 1 × 10^6 cells were incubated into the mammary fat pad of mice orthotopically. When the volume of tumor reached above 50 mm^3, the mice were randomly divided into three groups for introperitoneal (i.p.) injection with vehicle, 4 mg/kg and 16 mg/kg B591. The tumor volume and the body weight of mice were measured during the 2-weeks treatment. In the end of treatment, the mice were killed, and the tumor tissues were dissected and dissociated into single cell suspension with Dispase II (Roche, Basel, Switzerland) according with the manufacture’s protocol. Then these single cells were used for CSCs phenotype assay, ALDH activity assay, mammosphere formation assay and limiting dilution assay in vivo as described above.

[2] = tested on: CHO cells stably expressing EGFP-Akt1; experiment: Akt1 redistribution (IGF-1-stimulated membrane translocation of EGFP-Akt1); type: cell-based
Excerpt: Growth factors such as insulin-like growth factor 1 (IGF-1) and cytokines such as interleukin-6 stimulate and activate PI3K, leading to a subsequent increase of plasma membrane translocation and phosphorylation of Akt. Activated Akt promotes cell survival, cell growth and proliferation in human cancers.
Fig. 2 B591 inhibits PI3K/Akt pathway in multiple cancer cell lines. a Representative images of Akt1 redistribution in IGF-1-treated cells in the absence or presence of B591. Scale bar represents 10 μm. Arrows indicate IGF-1-mediated membrane translocation detected by the image analysis algorithm. b Inhibition of mTORC1 and mTORC2 signaling in multiple cancer cell lines, exposed for 5 h to increasing concentrations of B591. c HepG2 cells were treated with DMSO or 20 μM of B591 for 5 h. Immunofluorescence (red) intensity reflects eIF4E subcellular distribution. Cells were visualized with high content reader. Representative images are shown, and scale bar represents 50 μm. d Nuclear-to-cytoplasmic ratio of eIF4E in five cancer cell lines was determined via high content reader. e The phosphorylation of AKT and ERK was determined by immunoblotting in RD cells in the presence of 10 μM of B591 after indicated time of exposure. f Inhibition of the phosphorylation of AKT and ERK in RD cells treated with B591, PI-103 or Rapamycin for 24 h was determined by immunoblotting […]

[3] = tested on: phosphorylation of Akt and ERK in RD cells; experiment: Immunoblotting of feedback activation of Akt and ERK; type: cell-based, human; settings: up to 24 h, B591 10 μM
Description: (§1) Fig. 2 B591 inhibits PI3K/Akt pathway in multiple cancer cell lines. a Representative images of Akt1 redistribution in IGF-1-treated cells in the absence or presence of B591. Scale bar represents 10 μm. Arrows indicate IGF-1-mediated membrane translocation detected by the image analysis algorithm. b Inhibition of mTORC1 and mTORC2 signaling in multiple cancer cell lines, exposed for 5 h to increasing concentrations of B591. c HepG2 cells were treated with DMSO or 20 μM of B591 for 5 h. Immunofluorescence (red) intensity reflects eIF4E subcellular distribution. Cells were visualized with high content reader. Representative images are shown, and scale bar represents 50 μm. d Nuclear-to-cytoplasmic ratio of eIF4E in five cancer cell lines was determined via high content reader. e The phosphorylation of AKT and ERK was determined by immunoblotting in RD cells in the presence of 10 μM of B591 after indicated time of exposure. f Inhibition of the phosphorylation of AKT and ERK in RD cells treated with B591, PI-103 or Rapamycin for 24 h was determined by immunoblotting
Despite a significant efficacy in preclinical models, the clinical tumor response to mTORC1 inhibitors, such as rapalogs, is modest. […]

[4] = tested on: PI3K/Akt/mTORC1 and mTORC2 signaling in multiple cancer cell lines; experiment: Western blot of PI3K downstream effectors in multiple tumor cell lines; type: cell-based; settings: 5 h
Description: as §1
The key effectors downstream of PI3K were examined by western blot analysis in multiple tumor cell lines with different genetic background. […] Most recent study identified PtdIns(3,4,5)P3, which is generated by activated PI3K, as a direct upstream activator for mTORC2, highlighting the critical role of PI3K in mTORC2 activation. Therefore, the effect of B591 on mTORC2 signaling was evaluated by testing the phosphorylation levels of Akt at Ser473 and its substrate GSK3β at Ser9.

For `Cc1cc2c(cc1C)[n+](Cc1ccccc1Br)cn2Cc1ccc2c(c1)CCO2.[Br-]` [B591, 3-(2-bromobenzyl)-1-((2,3-dihydrobenzofuran-5-yl)methyl) -5,6-dimethyl-1H-benzo[d]imidazol-3-ium bromide], the “number of tumor-bearing mice (number of recipient mice)” value (from here on “number of tumor-bearing mice”) ([1]; cell number 2 000) was 0(5), the “number of tumor-bearing mice” value ([1]; cell number 20 000) was 2(5) and the “number of tumor-bearing mice” value ([1]; cell number 200 000) was 3(5). The “number of tumor-bearing mice” value ([1]; cell number 200) was 0(5), the “Reduction of tumor-initiating frequency versus vehicle” value ([1]; cells from B591-treated tumors) was “sevenfold reduction” and the “IGF-1-stimulated translocation of Akt to the plasma membrane” value [2] was “potently prevented this translocation event in a concentration-dependent manner”. The “Phosphorylation of Akt and ERK” value [3] was “effectively suppressed the phosphorylation of Akt and ERK over the whole time course of 24 h”, the “PI3K/Akt/mTORC1 signaling (phosphorylation of 4E-BP1, S6K1, S6)” value [4] was “effectively inhibited PI3K/Akt/mTORC1 signaling” and the “mTORC2 signaling: p-Akt (Ser473) and p-GSK3β (Ser9)” value ([4]; all tested cell types) was “concentration-dependent decrease”. For the same compound, the “Phosphorylation of Akt at Thr308” value ([4]; increasing concentrations) was “potently inhibited”.
